The test system of this experiment is r(CUG) repeat/Muscleblind-like protein 1. The experiment in a line: Inhibition of 5'-biotinylated r(CUG) repeat (unknown origin) to His6-tagged MBNL1 (unknown origin) complex formation preincubated for 5 mins followed by compound addition for 15 mins prior to streptavidin-XL664 and anti-His6-Tb antibody addition for 1 hr by TR-FRET method. The format is protein assay. In general terms: Time-resolved FRET reads energy transfer from a long-lived donor to a nearby acceptor.
In the case of `N=C(N)Nc1ccc(OC(=O)c2ccc(NC(=N)N)cc2)cc1`, inhibition was half-maximal at 8 µM (IC50). The result for `COc1cccc(Nc2cc(C)nc3ccc(C(=N)N)cc23)c1` reads 100 µM; that for `NCCN1CCN=C1c1ccc(C(=O)Nc2ccc(C3=NCCN3)cc2)cc1`, 19 µM.
